Data on three substances can be found in publication PMC7226534, “[^18F]FET-βAG-TOCA: The Design, Evaluation and Clinical Translation of a Fluorinated Octreotide” (Cancers, 2020).

One data set concerns Wistar rats. The settings on record: in vivo, iv. On the procedure:
While adhering to ALARP principles (As Low As Reasonably Practical), a rat dosimetry study was also conducted to enable initial prediction of human Effective Dose. Wistar rats were dosed with a single intravenous injection of [^18F]FET-βAG-TOCA and monitored up to 7 h. Effective Dose for both sexes were estimated at 0.03 mSv/MBq.

A further data set relates to rat (HsdHan:WIST strain). Kind of data set: GLP single dose intravenous bolus extended acute toxicology study in the rat. Type of data set: in vivo. As to conditions: dose levels 0, 0.25 and 1 mg/kg. On the procedure:
Two key studies were conducted to assure regulators of the safety of [^18F]FET-βAG-TOCA prior to first-in-human testing. A Good Laboratory Practice single dose intravenous bolus extended acute toxicology study in the rat (HsdHan^TM:WIST strain) was conducted with both [^19F]FET-βAG-TOCA and the propanyl-βAG-TOCA precursor. Animals were monitored throughout; day 2 (interim) and day 14 (termination) analysis were conducted. Dose levels of 0, 0.25 and 1 mg/kg of either test articles were tolerated in-life with no mortality. There were no effects on food consumption or body weight. Clinical pathology changes were noted but were not consistently seen in both sexes and were not associated with any pathological changes. A No Observed Adverse Effect Level (NOAEL) for both [^19F]FET-βAG-TOCA and propanyl-βAG-TOCA was considered to be 1.0 mg/kg. This study followed ‘approach 1’ given in the ICH M3 (R2) guideline to assess whether a single 50 μg (up to 100 μg) dose of the test article can be given to humans. The study design permitted a safety margin of 1000× the equivalent human dose to be established.

“[^18F]fluoroethyltriazole-βAG-TOCA [Compound 7]”: the “Effective Dose predicted for humans from rat dosimetry” value with Wistar rats is 0.03 mSv/MBq. In the case of propanyl-βAG-TOCA, in the data set on rat (HsdHan:WIST strain), the “Effects on food consumption or body weight” value was “no effects” and the Tolerability / mortality result was “no mortality”. For the substance [^19F]FET-βAG-TOCA, in the data set on rat (HsdHan:WIST strain), the “Effects on food consumption or body weight” value was “no effects” and the Tolerability / mortality result is “no mortality”.
